Reference: US20220356164A1, “2-AMINOSELENOPHEN COMPOUNDS WITH ANTI-DRUG RESISTANT BACTERIA ACTIVITY AND A METHOD OF PREPARING THE SAME” (ZHUHAI JINAN SELENIUM SOURCE NANOTECHNOLOGY CO., LTD., priority 2021, published 2022)
Values after ≈ are worked out from the molar mass of the structure shown. Where two headings read alike, the source gives them in different places.

Experiments:
Assay type in all cases: cell-based
[1] = tested on: methicillin-resistant Staphylococcus aureus MRSA 18-575; experiment: micro broth dilution MIC, MRSA 18-575; settings: read-out: The minimum inhibitory concentration, MRSA 18-575
From the text: (§1) Using micro broth dilution method, with ceftazidime and vancomycin as positive controls, test the minimum inhibitory concentration (MIC) of compounds 9, 11, and 14.
(§2) The experimental strains included drug-resistant gram-positive bacteria: methicillin-resistant Staphylococcus aureus MRSA 18-575, 18-596; drug-resistant gram-negative bacteria: multi-drug-resistant Pseudomonas aeruginosa MDR-PA 18-126, 18-756. The experimental strains were all donated by Huashan Hospital Affiliated to Fudan University (Fudan University Antibiotic Research Institute), and used after being identified by conventional methods.
(§3) The specific steps are as follows:
(§4) Preparation of MHB medium: Weigh 20.0 g of MHB medium, add it to 1L of distilled water, heat and boil until it is completely dissolved, divide it into conical flasks, autoclave at 121° C. for 15 minutes, and set aside.
(§5) Cultivate the experimental strains to the logarithmic growth phase: under aseptic conditions, inoculate the experimental strains into 100 mL of MHB medium, and place them in a constant temperature and humidity incubator at 37° C. for 20-22 hours for use.
(§6) Preparation of stock solution: Weigh the sample to be tested and dissolve it with 1% DMSO solution to prepare a stock solution with a concentration of 2560 μg/mL; weigh the positive control substance and dissolve it with sterile distilled water to prepare a stock solution with a concentration of 2560 μg/mL.
(§7) Bacterial suspension preparation: Under aseptic conditions, the experimental strains cultured to the logarithmic growth phase are calibrated to 0.5 McDonald's unit turbidity standard with MHB medium and diluted at a ratio of […] to prepare a concentration of 10^6 CFU/mL Bacterial suspension, spare.
(§8) Stock solution dilution and inoculation of experimental strains: under aseptic conditions, dilute the stock solution to a solution of 256 μg/mL. Take a sterile 96-well plate, add 100 μL of MHB medium to each well except for wells 1-3; add 100 μL of positive control solution to well 2 and 100 μL of compound sample solution to wells 3 and 4; Mix the sample solution in the well with the culture medium, and then pipet 100 μL to the fifth well. After mixing, pipet 100 μL to the sixth well, and then dilute to the tenth well by successive times, and then take 100 μL from the tenth well and discard it. The 11th well is a growth control without drugs; then, add 100 μL of the above-prepared bacterial suspension to each well, so that the final bacterial concentration in each well is 5×10^5 CFU/mL; at this point, the positive control concentration is 128 μg/mL, the concentration of the sample solution is 128, 64, 32, 16, 8, 4, 2, 1 μg/mL.
(§9) Incubation: Cover the 96-well plate that has been inoculated with experimental strains and place it in a constant temperature and humidity box at 37° C. for 20-22 hours.
(§10) Record the results as shown in FIGS. 1 to 10 (the holes are in order from left to right corresponding to positive, 128, 64, 32, 16, 8, 4, 2, 1, negative) and Table 1.

[2] = tested on: methicillin-resistant Staphylococcus aureus MRSA 18-596; experiment: micro broth dilution MIC, MRSA 18-596
From the text: as §1, §2, §3, §4, §5, §6, §7, §8, §9, §10

[3] = tested on: multi-drug-resistant Pseudomonas aeruginosa MDR-PA 18-126; experiment: micro broth dilution MIC, MDR-PA 18-126
From the text: as §1, §2, §3, §4, §5, §6, §7, §8, §9, §10

[4] = tested on: multi-drug-resistant Pseudomonas aeruginosa MDR-PA 18-756; experiment: micro broth dilution MIC, MDR-PA 18-756; settings: read-out: The minimum inhibitory concentration, MDR-PA 18-756
From the text: as §1, §2, §3, §4, §5, §6, §7
as §8, with “1 μg/mL. […]” for “1 μg/mL.”

[5] = MRSA, read-out: The minimum inhibitory concentration, MRSA 18-596
[6] = read-out: The minimum inhibitory concentration, MDR-PA 18-126

Row | SMILES | MIC ([1]; MRSA) | MIC [2, 5] | MIC [3, 6] | MIC [4] | MIC ([2]; MRSA, read-out: MIC against drug-resistant gram-positive bacteria MRSA) | MIC ([3]; read-out: MIC against MDR-PA) | MIC ([1]; strain MRSA 18-575, MHB medium, 37° C., 20-22 hours) | MIC ([2]; strain MRSA 18-596, MHB medium, 37° C., 20-22 hours, read-out: The minimum inhibitory concentration, MRSA 18-596) | MIC ([3]; strain MDR-PA 18-126, MHB medium, 37° C., 20-22 hours, read-out: The minimum inhibitory concentration, MDR-PA 18-126) | MIC ([4]; strain MDR-PA 18-756, MHB medium, 37° C., 20-22 hours)
1 | CN[C@H](CC(C)C)C(=O)N[C@H]1C(=O)N[C@@H](CC(N)=O)C(=O)N[C@H]2C(=O)N[C@H]3C(=O)N[C@H](C(=O)N[C@H](C(=O)O)c4cc(O)cc(O)c4-c4cc3ccc4O)[C@H](O)c3ccc(c(Cl)c3)Oc3cc2cc(c3O[C@@H]2O[C@H](CO)[C@@H](O)[C@H](O)[C@H]2O[C@H]2C[C@](C)(N)[C@H](O)[C@H](C)O2)Oc2ccc(cc2Cl)[C@H]1O [Vancomycin, reference compound] | 512 µg/mL (≈ 353 µM) | 512 µg/mL (≈ 353 µM) |  |  |  |  |  |  |  | 
2 | N#Cc1c(N)[se]c2c1CCCC2 [Compound 9] | 128 µg/mL (≈ 569 µM) | 128 µg/mL (≈ 569 µM) | > 128 µg/mL | 128 µg/mL (≈ 569 µM) |  |  |  |  |  | 
3 | CCCCc1c[se]c(N)c1C#N [Compound 14] | 128 µg/mL (≈ 563 µM) | 64 µg/mL (≈ 282 µM) | 64 µg/mL (≈ 282 µM) | > 128 µg/mL |  |  |  |  |  | 
4 | N#Cc1c(N)[se]c2c1CCCCC2 [Compound 11] | 32 µg/mL (≈ 134 µM) | 16 µg/mL (≈ 66.9 µM) | 64 µg/mL (≈ 268 µM) | 64 µg/mL (≈ 268 µM) | 16 µg/mL (≈ 66.9 µM) | 64 µg/mL (≈ 268 µM) |  |  |  | 
5 | CC(C)(O/N=C(\C(=O)N[C@@H]1C(=O)N2C(C(=O)[O-])=C(C[n+]3ccccc3)CS[C@H]12)c1csc(N)n1)C(=O)O [Ceftazidime, reference compound] |  |  |  |  |  |  | 128 µg/mL (≈ 234 µM) | 128 µg/mL (≈ 234 µM) | 128 µg/mL (≈ 234 µM) | 128 µg/mL (≈ 234 µM)
